Experimental data as given in ChEMBL document CHEMBL3865816, “Design, synthesis and biological evaluation of novel azaspiro analogs of linezolid as antibacterial and antitubercular agents” (Eur J Med Chem, 2016).
Converted amounts (≈) assume the structure as drawn.

Key:
Type in all cases: functional
Pseudomonas aeruginosa [1] = experiment: Antibacterial activity against Pseudomonas aeruginosa NCIM 2036 at 3 ug/ml measured after 8 hrs by spectrophotometric method; details: NCIM 2036, 8 h
Staphylococcus aureus [2] = experiment: Antibacterial activity against Staphylococcus aureus NCIM 2079 at 30 ug/ml measured after 12 hrs by spectrophotometric method; details: NCIM 2079, 12 h
Bacillus subtilis [3] = experiment: Antibacterial activity against Bacillus subtilis NCIM 2010 at 10 ug/ml measured after 12 hrs by spectrophotometric method; details: NCIM 2010, 12 h
Bacillus subtilis [4] = experiment: Antibacterial activity against Bacillus subtilis NCIM 2010 at 3 ug/ml measured after 12 hrs by spectrophotometric method; details: NCIM 2010, 12 h
Escherichia coli [5] = experiment: Antibacterial activity against Escherichia coli NCIM 2688 at 3 ug/ml measured after 8 hrs by spectrophotometric method; details: NCIM 2688, 8 h
Pseudomonas aeruginosa [6] = experiment: Antibacterial activity against Pseudomonas aeruginosa NCIM 2036 measured after 8 hrs by spectrophotometric method; details: NCIM 2036, 8 h
[7] = test system: Mycobacterium tuberculosis; experiment: Antitubercular activity against dormant stage Mycobacterium tuberculosis H37Ra at 3 ug/ml measured after 12 days by XTT assay; details: 288 h
[8] = test system: Mycobacterium tuberculosis; experiment: Antitubercular activity against active stage Mycobacterium tuberculosis H37Ra measured after 8 days by XTT assay; details: 192 h
Bacillus subtilis [9] = experiment: Antibacterial activity against Bacillus subtilis NCIM 2010 measured after 12 hrs by spectrophotometric method; details: NCIM 2010, 12 h
Escherichia coli [10] = experiment: Antibacterial activity against Escherichia coli NCIM 2688 at 30 ug/ml measured after 8 hrs by spectrophotometric method; details: NCIM 2688, 8 h
[11] = test system: Mycobacterium tuberculosis; experiment: Antitubercular activity against dormant stage Mycobacterium tuberculosis H37Ra at 10 ug/ml measured after 12 days by XTT assay; details: 288 h
Staphylococcus aureus [12] = experiment: Antibacterial activity against Staphylococcus aureus NCIM 2079 at 3 ug/ml measured after 12 hrs by spectrophotometric method; details: NCIM 2079, 12 h
Staphylococcus aureus [13] = experiment: Antibacterial activity against Staphylococcus aureus NCIM 2079 measured after 12 hrs by spectrophotometric method; details: NCIM 2079, 12 h
Pseudomonas aeruginosa [14] = experiment: Antibacterial activity against Pseudomonas aeruginosa NCIM 2036 at 10 ug/ml measured after 8 hrs by spectrophotometric method; details: NCIM 2036, 8 h
Bacillus subtilis [15] = experiment: Antibacterial activity against Bacillus subtilis NCIM 2010 at 30 ug/ml measured after 12 hrs by spectrophotometric method; details: NCIM 2010, 12 h
Escherichia coli [16] = experiment: Antibacterial activity against Escherichia coli NCIM 2688 at 10 ug/ml measured after 8 hrs by spectrophotometric method; details: NCIM 2688, 8 h
Pseudomonas aeruginosa [17] = experiment: Antibacterial activity against Pseudomonas aeruginosa NCIM 2036 at 30 ug/ml measured after 8 hrs by spectrophotometric method; details: NCIM 2036, 8 h
[18] = test system: Mycobacterium tuberculosis; experiment: Antitubercular activity against dormant stage Mycobacterium tuberculosis H37Ra at 30 ug/ml measured after 12 days by XTT assay; details: 288 h
[19] = test system: Mycobacterium tuberculosis; experiment: Antitubercular activity against dormant stage Mycobacterium tuberculosis H37Ra measured after 12 days by XTT assay; details: 288 h
Staphylococcus aureus [20] = experiment: Antibacterial activity against Staphylococcus aureus NCIM 2079 at 10 ug/ml measured after 12 hrs by spectrophotometric method; details: NCIM 2079, 12 h
Escherichia coli [21] = experiment: Antibacterial activity against Escherichia coli NCIM 2688 measured after 8 hrs by spectrophotometric method; details: NCIM 2688, 8 h

SMILES | inhibition at 3 µg/mL (Pseudomonas aeruginosa [1]) [%] | inhibition at 30 µg/mL (Staphylococcus aureus [2]) [%] | inhibition at 10 µg/mL (Bacillus subtilis [3]) [%] | inhibition at 3 µg/mL (Bacillus subtilis [4]) [%] | inhibition at 3 µg/mL (Escherichia coli [5]) [%] | IC50 (Pseudomonas aeruginosa [6]) [µg/mL] | MIC (Pseudomonas aeruginosa [6]) [µg/mL] | inhibition at 3 µg/mL [7] [%] | IC50 [8] [µg/mL] | MIC [8] [µg/mL] | IC50 (Bacillus subtilis [9]) [µg/mL] | MIC (Bacillus subtilis [9]) [µg/mL] | inhibition at 30 µg/mL (Escherichia coli [10]) [%] | inhibition at 10 µg/mL [11] [%] | inhibition at 3 µg/mL (Staphylococcus aureus [12]) [%] | IC50 (Staphylococcus aureus [13]) [µg/mL] | MIC (Staphylococcus aureus [13]) [µg/mL] | inhibition at 10 µg/mL (Pseudomonas aeruginosa [14]) [%] | inhibition at 30 µg/mL (Bacillus subtilis [15]) [%] | inhibition at 10 µg/mL (Escherichia coli [16]) [%] | further results
CC(=O)NC[C@H]1CN(c2ccc(C3=C[C@H]4CC[C@@H](C3)N4C(=O)OC(C)(C)C)c(F)c2)C(=O)O1 | 83.8 | 99.1 | 97.3 | 85.7 | 89.2 | 0.67 (≈ 1.46 µM) | 15.1 (≈ 32.8 µM) | 34.8 | 12.3 (≈ 26.8 µM) | 21.4 (≈ 46.6 µM) | 0.55 (≈ 1.2 µM) | 5.67 (≈ 12.3 µM) | 98.7 | 79.6 | 90.5 | 0.74 (≈ 1.61 µM) | 2.95 (≈ 6.42 µM) | 88.3 | 99.1 | 94.4 | inhibition at 30 µg/mL (Pseudomonas aeruginosa [17]): 93.9%; inhibition at 30 µg/mL [18]: 94.2%; IC50 [19]: 10.8 µg/mL (≈ 23.6 µM); MIC [19]: 20.5 µg/mL (≈ 44.6 µM); inhibition at 10 µg/mL (Staphylococcus aureus [20]): 97.9%; IC50 (Escherichia coli [21]): 0.57 µg/mL (≈ 1.24 µM); MIC (Escherichia coli [21]): 3.66 µg/mL (≈ 7.96 µM)
O=C1O[C@@H](CNC(=S)Nc2ccccc2F)CN1c1ccc(N2CC3(COC3)C2)c(F)c1 | 77.8 | 99.3 | 96.6 | 81 | 25 | 0.98 (≈ 2.13 µM) | 15.9 (≈ 34.5 µM) | 25.1 | 16.3 (≈ 35.5 µM) | 41.1 (≈ 89.3 µM) | 1.31 (≈ 2.84 µM) | 5.18 (≈ 11.2 µM) | 51.9 | 57.4 | 85.9 | 0.6 (≈ 1.3 µM) | 5.76 (≈ 12.5 µM) | 87.4 | 101 | 42.8 | inhibition at 30 µg/mL (Pseudomonas aeruginosa [17]): 96%; inhibition at 30 µg/mL [18]: 87.6%; IC50 [19]: 22.8 µg/mL (≈ 49.6 µM); MIC [19]: 41.6 µg/mL (≈ 90.4 µM); inhibition at 10 µg/mL (Staphylococcus aureus [20]): 95.7%; IC50 (Escherichia coli [21]): > 100 µg/mL; MIC (Escherichia coli [21]): > 100 µg/mL
CC(=O)NC[C@H]1CN(c2ccc(N3CCOCC3)c(F)c2)C(=O)O1 [LINEZOLID] | 99.2 | 99.1 | 99.4 | 98.9 | 99.3 | 0.49 (≈ 1.45 µM) | 1.31 (≈ 3.88 µM) | 84 | 0.8 (≈ 2.37 µM) | 1.31 (≈ 3.88 µM) | 0.64 (≈ 1.9 µM) | 1.8 (≈ 5.34 µM) | 100 | 96.6 | 99.5 | 0.42 (≈ 1.24 µM) | 1.13 (≈ 3.35 µM) | 99 | 99.8 | 99.8 | inhibition at 30 µg/mL (Pseudomonas aeruginosa [17]): 99.9%; inhibition at 30 µg/mL [18]: 95.5%; IC50 [19]: 0.71 µg/mL (≈ 2.1 µM); MIC [19]: 1.25 µg/mL (≈ 3.71 µM); inhibition at 10 µg/mL (Staphylococcus aureus [20]): 99.5%; IC50 (Escherichia coli [21]): 0.49 µg/mL (≈ 1.45 µM); MIC (Escherichia coli [21]): 1.15 µg/mL (≈ 3.41 µM)
